Source: publication PMC2376372, “3-Bromophenyl 6-acetoxymethyl-2-oxo-2H-1-benzopyran-3-carboxylate inhibits cancer cell invasion in vitro and tumour growth in vivo” (British Journal of Cancer, 2003)

Legend:
[1] = molecular target: T1, Plasmin (Homo sapiens, UniProt P00747); test: Inactivation of plasmin (preincubation method); format: biochemical; conditions: pH 7.5, 25°C; preincubation method; NI=no inhibition
T1 construct: No; X′; α-CT; HLE; LMW-uPA; Plasmin; purchased Biogenic
Method: (§1) Bovine α-CT and LMW-uPA (MW=33 000 Da) were purchased from Sigma, HMW-uPA (MW=54 000 Da) from Choay, trypsin (TRY) and THR from Boehringer-Indelheim (Germany), and MMP-2 and MMP-9 from Calbiochem. Human leucocyte elastase and PM were from Elastase Products Co. and Biogenic, respectively. Except for THR, HMW-uPA, MMP-2 and MMP-9, enzyme concentrations were determined by active-site titrations using the appropriate titrant ([Bender et al, 1966]; [Chase and Shaw, 1970]; [Powers and Gupton, 1977]). […]
(§2) The kinetic parameters for the inhibition were determined either by the preincubation method for LMW-uPA and PM (small aliquots of the reaction mixture were withdrawn at intervals of time and the remaining activity determined), or by the progress curve method (HLE) when the inhibition was too fast to be measured accurately using the preincubation method. […]
(§3) At low inhibitor concentrations, the ratio ki/KI was obtained as kobs/[I]0. […] In the progress curve method, the substrate competes with the inhibitor and the kinetic parameters are determined as previously described ([Doucet et al, 1999]). […]

[2] = molecular target: T2, HLE (Homo sapiens, UniProt P08246); conditions: pH 8.0, 25°C; ref Pochet et al (2000); cited from earlier work
T2 construct: purchased Elastase Products Co
T2 sequence (P08246 30-267): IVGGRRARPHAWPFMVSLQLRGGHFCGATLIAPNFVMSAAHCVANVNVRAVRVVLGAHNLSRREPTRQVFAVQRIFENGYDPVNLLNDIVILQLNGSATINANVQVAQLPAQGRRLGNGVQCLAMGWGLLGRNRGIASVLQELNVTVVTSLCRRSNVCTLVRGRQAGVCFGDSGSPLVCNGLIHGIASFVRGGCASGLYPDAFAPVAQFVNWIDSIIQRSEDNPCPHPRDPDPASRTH

[3] = molecular target: α-CT; conditions: pH 7.5, 25°C; ref Pochet et al (2000); cited from earlier work
[4] = system: MDA-MB231 cells; test: Tumorigenicity of MDA-MB231 cells injected s.c. with matrigel in nude mice; format: in vivo; conditions: 30 mg kg^−1 i.p. three times per week
Method: Matrigel (basement membrane proteins) was extracted from the mouse Engelbreth–Holm–Swarm (EHS) tumour as previously described ([Noël et al, 1991]). Tumoral cells were detached by trypsinisation, harvested by centrifugation, resuspended in 0.25 ml of serum-free medium and mixed with an equal volume of cold matrigel (10 mg ml^−1). The suspension (1 × 10^6 cells injection site^−1) was injected subcutaneously (s.c.) on both body flanks of 6–8-week-old female athymic nude mice (n=6; nu/nu Swiss mice from Iffa credo, L'Arbresle, France). The coumarin derivatives in PBS were injected intraperitoneally (30 mg kg^−1) three times per week during the whole assay.
The tumorigenicity defines the capacity of cells to induce tumour formation. The larger (a) and smaller (b) diameters of the apparent tumour were measured and served for tumour volume calculation according to a × b^2 × 0.4 ([Attia and Weiss, 1966]). Injected mice were examined weekly. Tumours presenting a volume higher than 80 mm^3 and which maintained a progressive growth were taken into account ([Noël et al, 1992]). Results are expressed as the mean (±s.e.m.) of the tumour volumes.

[5] = molecular target: T2, HLE; test: Inactivation of human leucocyte elastase (progress curve method); format: biochemical; conditions: pH 8.0, 25°C, read-out: ki/KI or kobs/[I], HLE
Method: as §1, §2, §3

T1 sequence (P00747 581-810 limits assumed, species assumed): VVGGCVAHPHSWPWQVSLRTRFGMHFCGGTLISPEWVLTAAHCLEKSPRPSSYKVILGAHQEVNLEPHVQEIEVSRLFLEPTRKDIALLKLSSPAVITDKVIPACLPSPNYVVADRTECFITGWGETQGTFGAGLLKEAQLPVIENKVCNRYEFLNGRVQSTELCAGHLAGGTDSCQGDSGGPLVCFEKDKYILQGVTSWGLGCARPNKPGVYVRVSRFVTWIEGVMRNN
T1 sequence (P00747 97-580 partner limits assumed, species assumed): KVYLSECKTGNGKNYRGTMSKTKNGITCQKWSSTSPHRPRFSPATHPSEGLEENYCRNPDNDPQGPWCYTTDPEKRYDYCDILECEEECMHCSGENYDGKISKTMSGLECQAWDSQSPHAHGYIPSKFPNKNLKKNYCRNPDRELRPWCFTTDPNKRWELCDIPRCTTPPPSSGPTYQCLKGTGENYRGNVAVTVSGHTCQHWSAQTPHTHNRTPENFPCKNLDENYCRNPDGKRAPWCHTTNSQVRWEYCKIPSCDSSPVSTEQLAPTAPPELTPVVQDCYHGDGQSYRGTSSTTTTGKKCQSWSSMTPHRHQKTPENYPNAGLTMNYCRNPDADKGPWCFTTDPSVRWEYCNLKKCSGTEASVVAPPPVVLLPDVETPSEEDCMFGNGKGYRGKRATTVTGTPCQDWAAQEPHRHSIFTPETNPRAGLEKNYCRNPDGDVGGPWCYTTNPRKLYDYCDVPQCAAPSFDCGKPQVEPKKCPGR

Compound	ki/KI or kobs/[I], Plasmin [1]	ki/KI or kobs/[I], HLE [2]	ki/KI or kobs/[I], α-CT [3]	melting point [°C]	effect on tumour incidence, MDA-MB231 [4]	effect on tumour growth, MDA-MB231 ([4]; ANOVA, P<0.05)	kinact/KI [5] [M⁻¹ s⁻¹]
CC(=O)OCc1ccc2oc(=O)c(C(=O)Oc3cccc(Cl)c3)cc2c1 [compound 4, 3-chlorophenyl 6-acetoxymethyl-2-oxo-2H-1-benzopyran-3-carboxylate]	not affected	1440^a M^−1 s^−1	20000^a M^−1 s^−1	–	–	–	–
CC(=O)OCc1ccc2oc(=O)c(C(=O)Oc3cccc(Br)c3)cc2c1 [compound 7, 3-bromophenyl 6-acetoxy-methyl-2-oxo-2H-1-benzopyran-3-carboxylate]	–	–	–	141 to 142	did not affect tumour incidence	reduced significantly tumour growth	2190
